Test results reported in patent US9156829B2, “Cycloalkyl and heterocycloalkyl compounds as orexin receptor antagonists” (Takeda Pharmaceutical Company Limited, priority 2014, dated 2015).

How the values were obtained:
human orexin receptor 1 = human orexin receptor 1 (Homo sapiens (Human), UniProt O43613); experiment: Orexin antagonist activity, intracellular calcium FLIPR assay, RBL-2H3 cells expressing human orexin receptor 1; format: cell-based; conditions: RBL-2H3 cells stably expressing human orexin receptor 1; orexin-A at approx. 80% maximal response; compound added 15 minutes before; read-out: Human Orexin1R IC50
human orexin receptor 1, sequence (O43613 whole entry): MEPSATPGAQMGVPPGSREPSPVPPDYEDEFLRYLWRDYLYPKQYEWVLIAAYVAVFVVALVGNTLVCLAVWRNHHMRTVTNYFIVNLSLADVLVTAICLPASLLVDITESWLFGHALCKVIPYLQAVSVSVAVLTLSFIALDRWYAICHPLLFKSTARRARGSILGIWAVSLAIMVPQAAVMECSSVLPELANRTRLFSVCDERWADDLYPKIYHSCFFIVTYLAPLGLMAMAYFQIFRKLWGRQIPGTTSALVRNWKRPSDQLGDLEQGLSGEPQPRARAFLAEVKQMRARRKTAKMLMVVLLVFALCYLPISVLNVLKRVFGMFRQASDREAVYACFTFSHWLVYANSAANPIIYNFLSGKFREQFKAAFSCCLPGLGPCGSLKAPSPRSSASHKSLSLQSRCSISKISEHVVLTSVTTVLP

human orexin receptor 2 = human orexin receptor 2 (Homo sapiens (Human), UniProt O43614); experiment: Orexin antagonist activity, intracellular calcium FLIPR assay, RBL-2H3 cells expressing human orexin receptor 2; format: cell-based; conditions: RBL-2H3 cells stably expressing human orexin receptor 2; orexin-A at approx. 80% maximal response; compound added 15 minutes before; read-out: Human Orexin2R IC50
human orexin receptor 2, sequence (O43614 whole entry): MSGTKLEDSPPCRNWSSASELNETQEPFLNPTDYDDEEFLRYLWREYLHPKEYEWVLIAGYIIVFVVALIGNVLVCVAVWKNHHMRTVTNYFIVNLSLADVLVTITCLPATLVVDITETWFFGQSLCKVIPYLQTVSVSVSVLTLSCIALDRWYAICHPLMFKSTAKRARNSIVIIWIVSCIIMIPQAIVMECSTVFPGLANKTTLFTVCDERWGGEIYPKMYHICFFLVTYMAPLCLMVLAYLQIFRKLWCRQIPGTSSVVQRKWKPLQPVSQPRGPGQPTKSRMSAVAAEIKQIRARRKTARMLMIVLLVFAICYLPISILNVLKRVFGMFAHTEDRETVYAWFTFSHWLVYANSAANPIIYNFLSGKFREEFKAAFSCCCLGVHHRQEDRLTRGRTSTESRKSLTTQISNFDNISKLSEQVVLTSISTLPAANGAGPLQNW

Structure (SMILES) | IC50 (human orexin receptor 1) [µM] | IC50 (human orexin receptor 2) [µM]
O=C(N[C@H]1CCC[C@@H]1Nc1ncc(C(F)(F)F)cc1Br)c1ccccc1-n1nccn1 [Example 107, N-[(1S,2S)-2-{[3-Bromo-5-(trifluoromethyl)pyridin-2-yl]amino}cyclopentyl]-2-(2H-1,2,3-triazol-2-yl)benzamide] | 0.027 | > 10
Cc1cc(C(F)(F)F)cnc1N[C@H]1CCC[C@@H]1NC(=O)c1ccccc1-n1nccn1 [Example 108, N-[(1S,2S)-2-{[3-Methyl-5-(trifluoromethyl)pyridin-2-yl]amino}cyclopentyl]-2-(2H-1,2,3-triazol-2-yl)benzamide] | 0.024 | > 10
O=C(N[C@H]1CCC[C@@H]1Nc1ncc(C(F)(F)F)nc1C1CC1)c1ccccc1-n1nccn1 [Example 109, N-[(1S,2S)-2-{[3-Cyclopropyl-5-(trifluoromethyl)pyrazin-2-yl]amino}cyclopentyl]-2-(2H-1,2,3-triazol-2-yl)benzamide] | 0.021 | > 10
CC(C)c1nc(C(F)(F)F)cnc1N[C@H]1CCC[C@@H]1NC(=O)c1ccccc1-n1nccn1 [Example 110, N-[(1S,2S)-2-{[3-(Propan-2-yl)-5-(trifluoromethyl)pyrazin-2-yl]amino}cyclopentyl]-2-(2H-1,2,3-triazol-2-yl)benzamide] | 0.043 | 3.55
CCc1nc(C(F)(F)F)cnc1N[C@H]1CCC[C@@H]1NC(=O)c1ccccc1-n1nccn1 [Example 111, N-[(1S,2S)-2-{[3-Ethyl-5-(trifluoromethyl)pyrazin-2-yl]amino}cyclopentyl]-2-(2H-1,2,3-triazol-2-yl)benzamide] | 0.034 | > 10
O=C(N[C@H]1CCC[C@@H]1Nc1cnc(C2CC2)cn1)c1ccccc1-n1nccn1 [Example 112, N-[(1S,2S)-2-[(5-Cyclopropylpyrazin-2-yl)amino]cyclopentyl]-2-(2H-1,2,3-triazol-2-yl)benzamide] | 0.476 | > 10
CC(C)c1cnc(N[C@H]2CCC[C@@H]2NC(=O)c2ccccc2-n2nccn2)cn1 [Example 113, N-[(1S,2S)-2-{[5-(Propan-2-yl)pyrazin-2-yl]amino}cyclopentyl]-2-(2H-1,2,3-triazol-2-yl)benzamide] | 0.067 | > 10
CCc1cnc(N[C@H]2CCC[C@@H]2NC(=O)c2ccccc2-n2nccn2)cn1 [Example 114, N-[(1S,2S)-2-[(5-Ethylpyrazin-2-yl)amino]cyclopentyl]-2-(2H-1,2,3-triazol-2-yl)benzamide] | 0.997 | > 10
O=C(N[C@H]1CCC[C@@H]1Nc1ccc(OC(F)(F)F)cn1)c1ccccc1-n1nccn1 [Example 115, 2-(2H-1,2,3-Triazol-2-yl)-N-[(1S,2S)-2-{[5-(trifluoromethoxy)pyridin-2-yl]amino}cyclopentyl]benzamide] | 0.175 | > 10
O=C(N[C@H]1CCC[C@@H]1Nc1ccc(Br)cn1)c1ccccc1-n1nccn1 [Example 118, N-[(1S,2S)-2-[(5-Bromopyridin-2-yl)amino]cyclopentyl]-2-(2H-1,2,3-triazol-2-yl)benzamide] | 0.368 | > 10
COc1cc(Br)cnc1N[C@H]1CCC[C@@H]1NC(=O)c1ccccc1-n1nccn1 [Example 119, N-[(1S,2S)-2-[(5-Bromo-3-methoxypyridin-2-yl)amino]cyclopentyl]-2-(2H-1,2,3-triazol-2-yl)benzamide] | 0.022 | 7.8
O=C(N[C@H]1CCC[C@@H]1Nc1cc(C(F)(F)F)ccn1)c1ccccc1-n1nccn1 [Example 121, 2-(2H-1,2,3-Triazol-2-yl)-N-[(1S,2S)-2-{[4-(trifluoromethyl)pyridin-2-yl]amino}cyclopentyl]benzamide] | 0.822 | > 10
O=C(N[C@H]1CCC[C@@H]1Nc1ncc(C(F)(F)F)cc1Cl)c1ncccc1-n1nccn1 [Example 122, N-[(1S,2S)-2-{[3-Chloro-5-(trifluoromethyl)pyridin-2-yl]amino}cyclopentyl]-3-(2H-1,2,3-triazol-2-yl)pyridine-2-carboxamide] | 0.032 | > 10
O=C(N[C@H]1CCC[C@@H]1Nc1ncc(C(F)(F)F)cc1F)c1ncccc1-n1nccn1 [Example 123, N-[(1S,2S)-2-{[3-Fluoro-5-(trifluoromethyl)pyridin-2-yl]amino}cyclopentyl]-3-(2H-1,2,3-triazol-2-yl)pyridine-2-carboxamide] | 0.018 | > 10
Cc1cc(C(F)(F)F)cnc1N[C@H]1CCC[C@@H]1NC(=O)c1ncccc1-n1nccn1 [Example 124, N-[(1S,2S)-2-{[3-Methyl-5-(trifluoromethyl)pyridin-2-yl]amino}cyclopentyl]-3-(2H-1,2,3-triazol-2-yl)pyridine-2-carboxamide] | 0.021 | > 10
CCc1nc(C(F)(F)F)cnc1N[C@H]1CCC[C@@H]1NC(=O)c1ncccc1-n1nccn1 [Example 125, N-[(1S,2S)-2-{[3-Ethyl-5-(trifluoromethyl)pyrazin-2-yl]amino}cyclopentyl]-3-(2H-1,2,3-triazol-2-yl)pyridine-2-carboxamide] | 0.014 | > 10

Further lines, results first:

IC50 (human orexin receptor 1) [µM] | IC50 (human orexin receptor 2) [µM] | Structure (SMILES)
0.119 | > 10 | O=C(NC1CC(F)(F)CC1Nc1cnc(C(F)(F)F)cn1)c1ccccc1-n1nccn1 (stereo not drawn) [Example 126, N-(4,4-Difluoro-2-{[5-(trifluoromethyl)pyrazin-2-yl]amino}cyclopentyl)-2-(2H-1,2,3-triazol-2-yl)benzamide]
0.039 | > 10 | O=C(N[C@H]1CC(F)(F)C[C@@H]1Nc1ccc(OC(F)(F)F)cn1)c1ccccc1-n1nccn1 [Example 131, N-[(1S,2S)-4,4-Difluoro-2-{[5-(trifluoromethoxy)pyridin-2-yl]amino}cyclopentyl]-2-(2H-1,2,3-triazol-2-yl)benzamide]
0.012 | > 10 | O=C(N[C@H]1CC(F)(F)C[C@@H]1Nc1ncc(C(F)(F)F)cc1F)c1ccccc1-n1nccn1 [Example 132, N-[(1S,2S)-4,4-Difluoro-2-{[3-fluoro-5-(trifluoromethyl)pyridin-2-yl]amino}cyclopentyl]-2-(2H-1,2,3-triazol-2-yl)benzamide]
0.094 | > 10 | CCOc1cnc(-c2ccccc2C(=O)N[C@H]2CCC[C@@H]2Nc2cnc(C(F)(F)F)cn2)nc1 [Example 135, 2-(5-Ethoxypyrimidin-2-yl)-N-[(1S,2S)-2-{[5-(trifluoromethyl)pyrazin-2-yl]amino}cyclopentyl]benzamide]
0.83 | > 10 | COc1cccc(F)c1C(=O)N[C@H]1CCC[C@@H]1Nc1cnc(C(F)(F)F)cn1 [Example 136, 2-Fluoro-6-methoxy-N-[(1S,2S)-2-{[5-(trifluoromethyl)pyrazin-2-yl]amino}cyclopentyl]benzamide]
0.034 | > 10 | Cc1cc(C(F)(F)F)cnc1N[C@H]1CCC[C@@H]1NC(=O)c1ncccc1-c1ncccn1 [Example 137, N-[(1S,2S)-2-{[3-Methyl-5-(trifluoromethyl)pyridin-2-yl]amino}cyclopentyl]-3-(pyrimidin-2-yl)pyridine-2-carboxamide]
0.03 | > 10 | O=C(N[C@H]1CCC[C@@H]1Nc1ncc(C(F)(F)F)cc1F)c1ccccc1-c1ncccn1 [Example 138, N-[(1S,2S)-2-{[3-Fluoro-5-(trifluoromethyl)pyridin-2-yl]amino}cyclopentyl]-2-(pyrimidin-2-yl)benzamide]
0.032 | > 10 | O=C(N[C@H]1CCC[C@@H]1Nc1ncc(C(F)(F)F)cc1F)c1cc(F)ccc1-c1ncccn1 [Example 139, 5-Fluoro-N-[(1S,2S)-2-{[3-fluoro-5-(trifluoromethyl)pyridin-2-yl]amino}cyclopentyl]-2-(pyrimidin-2-yl)benzamide]
0.035 | > 10 | Cc1noc(-c2ccccc2C(=O)N[C@H]2CCC[C@@H]2Nc2ncc(C(F)(F)F)cc2F)n1 [Example 140, N-[(1S,2S)-2-{[3-Fluoro-5-(trifluoromethyl)pyridin-2-yl]amino}cyclopentyl]-2-(3-methyl-1,2,4-oxadiazol-5-yl)benzamide]
0.062 | > 10 | Cc1noc(-c2ccccc2C(=O)N[C@H]2CCC[C@@H]2Nc2ncc(C(F)(F)F)nc2C)n1 [Example 141, 2-(3-Methyl-1,2,4-oxadiazol-5-yl)-N-[(1S,2S)-2-{[3-methyl-5-(trifluoromethyl)pyrazin-2-yl]amino}cyclopentyl]benzamide]
0.012 | 8.83 | O=C(N[C@H]1CCC[C@@H]1Nc1ncc(C(F)(F)F)nc1C1CC1)c1ncccc1-n1nccn1 [Example 142, N-[(1S,2S)-2-{[3-Cyclopropyl-5-(trifluoromethyl)pyrazin-2-yl]amino}cyclopentyl]-3-(2H-1,2,3-triazol-2-yl)pyridine-2-carboxamide]
0.049 | > 10 | O=C(N[C@H]1CCC[C@@H]1Nc1ncc(C(F)(F)F)nc1C1CC1)c1ncccc1-c1ncccn1 [Example 143, N-[(1S,2S)-2-{[3-Cyclopropyl-5-(trifluoromethyl)pyrazin-2-yl]amino}cyclopentyl]-3-(pyrimidin-2-yl)pyridine-2-carboxamide]
0.013 | > 10 | C[C@]1(Nc2cnc(C(F)(F)F)cn2)CCC[C@@H]1NC(=O)c1ncccc1-c1ncccn1 [Example 144, N-[(1S,2S)-2-Methyl-2-{[5-(trifluoromethyl)pyrazin-2-yl]amino}cyclopentyl]-3-(pyrimidin-2-yl)pyridine-2-carboxamide]
0.011 | > 10 | Cc1noc(-c2ccccc2C(=O)N[C@H]2CCC[C@]2(C)Nc2cnc(C(F)(F)F)cn2)n1 [Example 145, 2-(3-Methyl-1,2,4-oxadiazol-5-yl)-N-[(1S,2S)-2-methyl-2-{[5-(trifluoromethyl)pyrazin-2-yl]amino}cyclopentyl]benzamide]
